pKi: −log10 of the molar value.
molecular target: Mcl-1 protein (UniProtKB Q07820) (Homo sapiens (Human), UniProt Q07820); experiment: Inhibition of Mcl-1 by the fluorescence polarisation assay (Example A, Method A); type: binding; details: fluorescence polarization assay
Method in brief: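 Protein (5 nM) and fluorescein-tagged peptide tracer (1 nM) incubated with 11-point compound series for 2 h at room temperature in HEPES/NaCl/Tween 20 buffer, pH 7.4, 5% DMSO. Displacement read as decrease in polarisation; IC50 fitted by 4-parameter logistic, converted to Ki (cKi or eKi).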

Mcl-1 protein, sequence (Q07820 whole entry): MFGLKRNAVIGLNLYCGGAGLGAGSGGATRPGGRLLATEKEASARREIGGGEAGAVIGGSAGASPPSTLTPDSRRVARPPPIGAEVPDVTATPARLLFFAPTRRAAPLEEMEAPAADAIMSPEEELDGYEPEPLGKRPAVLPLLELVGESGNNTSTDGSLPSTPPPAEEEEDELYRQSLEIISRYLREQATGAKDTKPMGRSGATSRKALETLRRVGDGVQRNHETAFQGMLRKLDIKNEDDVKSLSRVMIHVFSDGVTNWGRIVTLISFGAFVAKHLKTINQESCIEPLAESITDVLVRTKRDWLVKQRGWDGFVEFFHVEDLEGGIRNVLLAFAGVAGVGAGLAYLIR

| SMILES | pKi |
| --- | --- |
| O=C(O)[C@]1(Nc2cccc(Cl)c2)CC[C@]2(CC1)C(CCCOc1ccccc1)=Cc1ccccc12 [Example 422, (1r,4r)-4-(3-chloroanilino)-2′-(3-phenoxypropyl)spiro[cyclohexane-1,1′-indene]-4-carboxylic acid] | 7.02 |
| COc1ccc(C2Cc3ccccc3[C@]23CC[C@@](Nc2cccc(Cl)c2)(C(=O)O)CC3)c(Cl)c1 (single isomer, unassigned) [Example 268, (1r,4r)-4-(3-chloroanilino)-2′-(2-chloro-4-methoxyphenyl)-2′,3′-dihydrospiro[cyclohexane-1,1′-indene]-4-carboxylic acid] | 5.99 |
| O=C(O)[C@]1(Nc2cccc(Cl)c2)CC[C@@]2(CC1)c1ccccc1CC2c1cccc(Oc2ccncc2)c1 (single isomer, unassigned) [Example 376, (1r,4r)-4-(3-chloroanilino)-2′-{3-[(pyridin-4-yl)oxy]phenyl}-2′,3′-dihydrospiro[cyclohexane-1,1′-indene]-4-carboxylic acid] | 6.57 |
| O=C(O)[C@]1(Nc2cccc(Cl)c2)CC[C@@]2(CC1)c1ccccc1C[C@H]2c1ccc2occc2c1 [Example 281, (1r,2′S,4S)-2′-(1-benzofuran-5-yl)-4-(3-chloroanilino)-2′,3′-dihydrospiro[cyclohexane-1,1′-indene]-4-carboxylic acid] | 6.33 |
| Cc1ccc(C2Cc3ccccc3C23CCC(Nc2cccc(Br)c2)(C(=O)O)CC3)cc1 (stereo not drawn) [Example 216, 4-(3-bromoanilino)-2′-(4-methylphenyl)-2′,3′-dihydrospiro[cyclohexane-1,1′-indene]-4-carboxylic acid] | 5.76 |
| C=CCOC1Cc2ccccc2[C@]12CC[C@@](Nc1cccc(Br)c1)(C(=O)O)CC2 (stereo partly drawn) [Example 121, (1s,4s)-4-(3-bromoanilino)-2′-[(prop-2-en-1-yl)oxy]-2′,3′-dihydrospiro[cyclohexane-1,1′-indene]-4-carboxylic acid] | 5.81 |
| O=C(O)[C@]1(Nc2cccc(Cl)c2)CC[C@@]2(CC1)c1ccccc1CC2CCOc1ccnc2ccsc12 (stereo partly drawn) [Example 186, (1r,4r)-4-(3-chloroanilino)-2′-{2-[(thieno[3,2-b]pyridin-7-yl)oxy]ethyl}-2′,3′-dihydrospiro[cyclohexane-1,1′-indene]-4-carboxylic acid] | 6.91 |
| COc1cccc(N[C@]2(C(=O)O)CC[C@@]3(CC2)C(Br)=Cc2ccccc23)c1 [Example 86, (1s,4s)-2′-bromo-4-(3-methoxyanilino)spiro[cyclohexane-1,1′-indene]-4-carboxylic acid] | 5.39 |
| O=C(O)[C@]1(Nc2cccc(Cl)c2)CC[C@]2(CC1)C(Br)=Cc1cc(F)ccc12 [Example 138, (1s,4s)-2′-bromo-4-(3-chloroanilino)-5′-fluorospiro[cyclohexane-1,1′-indene]-4-carboxylic acid] | 6.66 |
| O=C(O)[C@]1(Nc2cccc(Cl)c2)CC[C@]2(CC1)C(COCc1ccccc1)=Cc1ccccc12 [Example 179, (1s,4s)-2′-[(benzyloxy)methyl]-4-(3-chloroanilino)spiro[cyclohexane-1,1′-indene]-4-carboxylic acid] | 6.30 |
| Cc1cc(C)cc(C2=Cc3ccccc3C23CCC(Nc2cccc(Br)c2)(C(=O)O)CC3)c1 (single isomer, unassigned) [Example 238, 4-(3-bromoanilino)-2′-(3,5-dimethylphenyl)spiro[cyclohexane-1,1′-indene]-4-carboxylic acid] | 4.24 |
| COc1ccc(C2=Cc3ccccc3[C@]23CC[C@@](Nc2cccc(Cl)c2)(C(=O)O)CC3)cc1 [Example 230, (1s,4s)-4-(3-chloroanilino)-2′-(4-methoxyphenyl)spiro[cyclohexane-1,1′-indene]-4-carboxylic acid] | 5.97 |
| COc1ccc2c(c1)C=C(Br)[C@]21CC[C@](Nc2cccc(Cl)c2)(C(=O)O)CC1 [Example 130, (1s,4s)-2′-bromo-4-(3-chloroanilino)-5′-methoxyspiro[cyclohexane-1,1′-indene]-4-carboxylic acid] | 7.03 |
| COc1ccc(C2Cc3ccccc3[C@]23CC[C@@](Nc2cccc(Cl)c2)(C(=O)O)CC3)cc1C (single isomer, unassigned) [Example 242, (1r,4r)-4-(3-chloroanilino)-2′-(4-methoxy-3-methylphenyl)-2′,3′-dihydrospiro[cyclohexane-1,1′-indene]-4-carboxylic acid] | 5.92 |
| CC1N(C)c2ccccc2[C@]12CC[C@](Nc1cccc(Br)c1)(C(=O)O)CC2 (stereo partly drawn) [Example 23, (1r,4r)-4-(3-bromoanilino)-1′,2′-dimethyl-1′,2′-dihydrospiro[cyclohexane-1,3′-indole]-4-carboxylic acid] | 5.97 |
| O=C(O)[C@]1(Nc2cccc(Cl)c2)CC[C@@]2(CC1)c1ccccc1CC2CCOc1ccccc1 (stereo partly drawn) [Example 177, (1r,4r)-4-(3-chloroanilino)-2′-(2-phenoxyethyl)-2′,3′-dihydrospiro[cyclohexane-1,1′-indene]-4-carboxylic acid] | 6.65 |
| COc1ccc2c(c1)[C@]1(CC[C@](Nc3cccc(Br)c3)(C(=O)O)CC1)C(Cc1ccccc1)C2 (stereo partly drawn) [Example 126, (1s,4s)-2′-benzyl-4-(3-bromoanilino)-6′-methoxy-2′,3′-dihydrospiro[cyclohexane-1,1′-indene]-4-carboxylic acid] | 5.04 |
| O=C(O)[C@]1(Nc2cccc(Cl)c2)CC[C@@]2(CC1)c1ccccc1CC2c1ccc2c(c1)OCC2 (single isomer, unassigned) [Example 287, (1r,4r)-4-(3-chloroanilino)-2′-(2,3-dihydro-1-benzofuran-6-yl)-2′,3′-dihydrospiro[cyclohexane-1,1′-indene]-4-carboxylic acid] | 6.03 |
| O=C(O)[C@]1(Nc2cccc(Cl)c2)CC[C@]2(CC1)C(c1ccoc1)=Cc1ccccc12 [Example 329, (1s,4s)-4-(3-chloroanilino)-2′-(furan-3-yl)spiro[cyclohexane-1,1′-indene]-4-carboxylic acid] | 5.78 |
| Cc1cccc(C2Cc3ccccc3C23CCC(Nc2cccc(Br)c2)(C(=O)O)CC3)c1 (stereo not drawn) [Example 215, 4-(3-bromoanilino)-2′-(3-methylphenyl)-2′,3′-dihydrospiro[cyclohexane-1,1′-indene]-4-carboxylic acid] | 6.07 |
| COc1cccc(Cl)c1C1=Cc2ccccc2[C@]12CC[C@@](Nc1cccc(Cl)c1)(C(=O)O)CC2 [Example 250, (1s,4s)-4-(3-chloroanilino)-2′-(2-chloro-6-methoxyphenyl)spiro[cyclohexane-1,1′-indene]-4-carboxylic acid] | 4.86 |
| CN1c2ccc(C3CC3)cc2[C@]2(CC[C@](Nc3cccc(Br)c3)(C(=O)O)CC2)C1=O [Example 15, (1r,4r)-4-(3-bromoanilino)-5′-cyclopropyl-1′-methyl-2′-oxo-1′,2′-dihydrospiro[cyclohexane-1,3′-indole]-4-carboxylic acid] | 4.94 |
| C=CCOc1ccc2c(c1)[C@]1(CC2)CC[C@](Nc2cccc(Br)c2)(C(=O)O)CC1 [Example 68, (1r,4s)-4-(3-bromoanilino)-6′-[(prop-2-en-1-yl)oxy]-2′,3′-dihydrospiro[cyclohexane-1,1′-indene]-4-carboxylic acid] | 6.52 |
| Cc1cnccc1CCCOC1Cc2ccccc2[C@]12CC[C@@](Nc1cccc(Cl)c1)(C(=O)O)CC2 (stereo partly drawn) [Example 401, (1s,4s)-4-(3-chloroanilino)-2′-[3-(3-methylpyridin-4-yl)propoxy]-2′,3′-dihydrospiro[cyclohexane-1,1′-indene]-4-carboxylic acid] | 6.49 |

Reference: US20240150293A1, “SPIROCYCLOHEXANE DERIVATIVES, PHARMACEUTICAL COMPOSITIONS CONTAINING THEM AND THEIR USES AS ANTI-APOPTOTIC INHIBITORS” (LES LABORATOIRES SERVIER, priority 2021, published 2024)
